Experimental findings from ChEMBL document CHEMBL5291721, “A preclinical secondary pharmacology resource illuminates target-adverse drug reaction associations of marketed drugs” (Nat Commun, 2023) are described below.

Targets include Vasopressin V1a receptor (Homo sapiens, UniProt P37288); Vasopressin V2 receptor (Homo sapiens, UniProt P30518); Histamine H3 receptor (Homo sapiens, UniProt Q9Y5N1).
The next assay has as its target T1, Adenosine receptor A1 (Homo sapiens, UniProt P30542).
T1 sequence (P30542 whole entry): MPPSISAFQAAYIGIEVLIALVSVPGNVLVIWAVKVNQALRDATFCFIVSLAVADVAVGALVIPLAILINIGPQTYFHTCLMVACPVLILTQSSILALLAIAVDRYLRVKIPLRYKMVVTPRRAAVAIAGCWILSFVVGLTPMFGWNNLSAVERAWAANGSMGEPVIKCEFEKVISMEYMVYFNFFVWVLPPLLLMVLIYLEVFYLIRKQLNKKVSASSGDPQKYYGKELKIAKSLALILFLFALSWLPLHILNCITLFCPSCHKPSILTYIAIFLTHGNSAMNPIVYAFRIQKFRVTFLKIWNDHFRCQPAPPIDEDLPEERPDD

For assay [1], the target named is T2, Type-1 angiotensin II receptor (Homo sapiens, UniProt P30556).
T2 sequence (P30556 whole entry): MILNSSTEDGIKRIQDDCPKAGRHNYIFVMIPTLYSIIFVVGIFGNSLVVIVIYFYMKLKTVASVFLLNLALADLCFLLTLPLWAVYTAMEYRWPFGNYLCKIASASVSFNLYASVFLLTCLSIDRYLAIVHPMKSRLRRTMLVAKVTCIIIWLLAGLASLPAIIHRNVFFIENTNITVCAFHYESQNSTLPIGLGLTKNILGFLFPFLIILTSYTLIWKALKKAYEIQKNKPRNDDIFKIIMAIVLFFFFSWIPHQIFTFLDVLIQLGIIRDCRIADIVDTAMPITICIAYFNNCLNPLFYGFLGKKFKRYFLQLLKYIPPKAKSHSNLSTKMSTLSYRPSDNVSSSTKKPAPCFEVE

The target in assay [2] is T3, Gastrin/cholecystokinin type B receptor (Homo sapiens, UniProt P32239).
T3 sequence (P32239 whole entry): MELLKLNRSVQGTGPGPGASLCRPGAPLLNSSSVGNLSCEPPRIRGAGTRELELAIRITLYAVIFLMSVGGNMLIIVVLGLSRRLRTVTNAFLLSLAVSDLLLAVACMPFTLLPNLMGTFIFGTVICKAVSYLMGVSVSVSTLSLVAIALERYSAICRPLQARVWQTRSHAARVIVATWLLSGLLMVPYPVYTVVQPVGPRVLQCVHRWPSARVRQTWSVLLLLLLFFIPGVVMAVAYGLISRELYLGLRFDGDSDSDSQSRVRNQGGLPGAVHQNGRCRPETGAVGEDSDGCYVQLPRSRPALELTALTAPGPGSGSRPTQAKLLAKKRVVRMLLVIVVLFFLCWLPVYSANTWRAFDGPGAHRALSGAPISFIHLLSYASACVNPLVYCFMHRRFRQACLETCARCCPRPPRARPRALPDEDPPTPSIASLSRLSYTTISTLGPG

Assay [3] deals with T4, Muscarinic acetylcholine receptor M1 (Homo sapiens, UniProt P11229).
T4 sequence (P11229 whole entry): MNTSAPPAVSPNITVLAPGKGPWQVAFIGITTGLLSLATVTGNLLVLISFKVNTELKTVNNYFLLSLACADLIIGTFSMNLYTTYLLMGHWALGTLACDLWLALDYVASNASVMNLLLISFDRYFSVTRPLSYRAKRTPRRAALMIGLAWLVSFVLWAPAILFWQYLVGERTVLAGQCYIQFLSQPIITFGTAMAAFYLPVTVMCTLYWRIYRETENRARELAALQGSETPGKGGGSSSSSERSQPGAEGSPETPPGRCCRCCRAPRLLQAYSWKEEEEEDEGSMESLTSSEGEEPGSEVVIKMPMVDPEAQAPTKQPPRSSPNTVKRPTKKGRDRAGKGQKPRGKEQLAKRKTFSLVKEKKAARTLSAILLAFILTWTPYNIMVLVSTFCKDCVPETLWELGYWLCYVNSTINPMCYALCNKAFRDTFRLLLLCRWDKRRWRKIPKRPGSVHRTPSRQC
It is filed as functional.

For the next assay, the target named is Cannabinoid receptor 1 (Homo sapiens, UniProt P21554). It is filed as functional, cell-based.
Assay [4] deals with 5-hydroxytryptamine receptor 2A (Homo sapiens, UniProt P28223). Format: functional, cell-based.
Assay [5] deals with T5, 5-hydroxytryptamine receptor 2C (Homo sapiens, UniProt P28335).
T5 sequence (P28335 whole entry): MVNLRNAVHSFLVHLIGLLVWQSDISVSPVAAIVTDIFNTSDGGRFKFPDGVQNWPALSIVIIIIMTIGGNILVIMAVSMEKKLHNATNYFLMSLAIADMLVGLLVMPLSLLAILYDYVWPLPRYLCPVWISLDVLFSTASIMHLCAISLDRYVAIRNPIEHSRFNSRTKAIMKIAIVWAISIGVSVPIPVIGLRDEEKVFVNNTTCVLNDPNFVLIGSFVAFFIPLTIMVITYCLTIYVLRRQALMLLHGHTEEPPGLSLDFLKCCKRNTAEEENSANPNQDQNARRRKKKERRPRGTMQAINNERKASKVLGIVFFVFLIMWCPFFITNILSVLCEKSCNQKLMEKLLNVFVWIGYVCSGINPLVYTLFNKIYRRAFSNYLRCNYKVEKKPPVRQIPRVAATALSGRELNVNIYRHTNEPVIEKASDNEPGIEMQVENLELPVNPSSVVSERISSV

Assay [6] addresses T6, 5-hydroxytryptamine receptor 3A (Homo sapiens, UniProt P46098).
T6 sequence (P46098 whole entry): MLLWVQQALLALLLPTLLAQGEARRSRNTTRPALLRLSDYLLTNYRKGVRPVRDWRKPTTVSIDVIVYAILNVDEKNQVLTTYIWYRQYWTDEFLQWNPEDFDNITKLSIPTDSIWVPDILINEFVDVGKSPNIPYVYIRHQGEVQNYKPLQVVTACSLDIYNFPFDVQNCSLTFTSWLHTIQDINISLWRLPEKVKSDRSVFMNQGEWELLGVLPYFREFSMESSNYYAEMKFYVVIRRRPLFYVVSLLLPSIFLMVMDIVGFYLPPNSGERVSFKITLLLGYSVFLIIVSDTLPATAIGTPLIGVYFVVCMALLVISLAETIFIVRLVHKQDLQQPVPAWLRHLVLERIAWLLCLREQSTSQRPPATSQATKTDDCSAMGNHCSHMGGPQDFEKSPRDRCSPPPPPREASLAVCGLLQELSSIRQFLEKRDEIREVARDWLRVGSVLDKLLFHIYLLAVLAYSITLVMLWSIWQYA
It is filed as functional.

A value given as a limit tells only on which side of the number the result lay.
Further: assay procedure not described here.

Sequence of Vasopressin V2 receptor (P30518 whole entry): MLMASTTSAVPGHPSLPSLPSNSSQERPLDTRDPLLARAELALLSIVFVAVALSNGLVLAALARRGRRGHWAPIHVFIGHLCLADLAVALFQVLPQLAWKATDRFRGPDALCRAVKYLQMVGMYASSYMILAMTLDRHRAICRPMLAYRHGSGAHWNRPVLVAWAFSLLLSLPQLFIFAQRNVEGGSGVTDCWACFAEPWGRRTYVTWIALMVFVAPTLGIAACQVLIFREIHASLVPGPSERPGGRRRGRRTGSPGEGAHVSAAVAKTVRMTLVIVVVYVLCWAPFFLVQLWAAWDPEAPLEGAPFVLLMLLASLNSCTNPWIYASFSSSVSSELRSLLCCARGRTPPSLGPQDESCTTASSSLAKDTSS
Sequence of Vasopressin V1a receptor (P37288 whole entry): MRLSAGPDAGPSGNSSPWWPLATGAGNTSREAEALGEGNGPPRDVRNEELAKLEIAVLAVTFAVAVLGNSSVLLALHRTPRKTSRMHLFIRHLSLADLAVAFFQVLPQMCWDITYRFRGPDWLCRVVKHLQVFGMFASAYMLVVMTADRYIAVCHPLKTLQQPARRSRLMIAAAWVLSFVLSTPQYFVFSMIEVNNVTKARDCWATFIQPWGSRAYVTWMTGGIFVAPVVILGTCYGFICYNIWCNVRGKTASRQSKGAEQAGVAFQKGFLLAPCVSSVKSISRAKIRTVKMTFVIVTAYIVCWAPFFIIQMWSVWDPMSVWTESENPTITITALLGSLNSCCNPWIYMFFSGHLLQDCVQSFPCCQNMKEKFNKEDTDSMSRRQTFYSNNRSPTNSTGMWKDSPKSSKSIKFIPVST
Sequence of 5-hydroxytryptamine receptor 2A (P28223 whole entry): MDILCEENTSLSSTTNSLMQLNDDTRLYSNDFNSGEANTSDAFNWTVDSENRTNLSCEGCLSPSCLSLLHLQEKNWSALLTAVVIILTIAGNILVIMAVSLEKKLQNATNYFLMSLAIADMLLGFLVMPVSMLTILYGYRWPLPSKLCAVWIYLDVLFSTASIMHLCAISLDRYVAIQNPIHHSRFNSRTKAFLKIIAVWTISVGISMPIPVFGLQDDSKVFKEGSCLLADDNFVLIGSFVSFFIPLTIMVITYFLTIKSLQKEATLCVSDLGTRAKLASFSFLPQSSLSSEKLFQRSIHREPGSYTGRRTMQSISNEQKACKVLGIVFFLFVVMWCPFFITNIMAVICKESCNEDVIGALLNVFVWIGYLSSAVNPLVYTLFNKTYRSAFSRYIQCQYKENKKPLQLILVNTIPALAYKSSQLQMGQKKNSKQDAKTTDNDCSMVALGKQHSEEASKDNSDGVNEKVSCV
Sequence of Histamine H3 receptor (Q9Y5N1 whole entry): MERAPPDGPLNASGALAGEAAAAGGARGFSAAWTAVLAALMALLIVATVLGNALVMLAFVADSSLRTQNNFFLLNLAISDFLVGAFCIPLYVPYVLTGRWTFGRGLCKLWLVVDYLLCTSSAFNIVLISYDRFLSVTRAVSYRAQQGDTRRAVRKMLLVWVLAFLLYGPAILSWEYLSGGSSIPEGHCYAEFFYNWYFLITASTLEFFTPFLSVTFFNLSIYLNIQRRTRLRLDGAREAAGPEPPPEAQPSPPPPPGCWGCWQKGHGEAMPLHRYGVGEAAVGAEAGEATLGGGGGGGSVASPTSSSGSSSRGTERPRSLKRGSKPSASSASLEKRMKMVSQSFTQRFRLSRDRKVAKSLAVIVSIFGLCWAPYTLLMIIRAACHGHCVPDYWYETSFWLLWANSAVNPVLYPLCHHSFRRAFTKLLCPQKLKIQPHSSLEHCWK
Sequence of Cannabinoid receptor 1 (P21554 whole entry): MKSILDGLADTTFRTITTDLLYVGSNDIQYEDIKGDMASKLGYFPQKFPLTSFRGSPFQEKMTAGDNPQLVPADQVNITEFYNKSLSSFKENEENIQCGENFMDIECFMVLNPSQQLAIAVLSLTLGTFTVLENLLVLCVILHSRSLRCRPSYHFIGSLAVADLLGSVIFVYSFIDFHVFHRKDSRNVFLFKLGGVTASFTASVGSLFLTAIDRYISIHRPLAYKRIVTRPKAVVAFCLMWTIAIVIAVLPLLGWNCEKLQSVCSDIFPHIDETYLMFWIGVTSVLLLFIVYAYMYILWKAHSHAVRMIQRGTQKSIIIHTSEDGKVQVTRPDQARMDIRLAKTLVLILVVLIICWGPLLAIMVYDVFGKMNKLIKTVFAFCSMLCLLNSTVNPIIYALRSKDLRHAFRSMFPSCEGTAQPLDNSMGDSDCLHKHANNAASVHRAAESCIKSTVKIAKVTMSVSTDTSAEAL

Consider `CN1CCN(c2c(F)cc3c(=O)c(C(=O)O)cn4c3c2SCC4)CC1` [RUFLOXACIN], for which the AC50 (at Adenosine receptor A1; in [1]; at Vasopressin V1a receptor; at Vasopressin V2 receptor; in assay [2]; in [3]) was greater than 30 µM in each case. Further, the AC50 (at Cannabinoid receptor 1; in assay [4]; in assay [5]; in assay [6]; at Histamine H3 receptor) was greater than 30 µM in each case.
With `COc1c(O[C@@H]2O[C@H](CO)[C@@H](O)[C@H](O)[C@H]2O)cc2c(c1OC)-c1ccc(SC)c(=O)cc1[C@@H](NC(C)=O)CC2` [THIOCOLCHICOSIDE], the AC50 (at Adenosine receptor A1; in [1]; at Vasopressin V1a receptor; at Vasopressin V2 receptor; in assay [2]; in [3]) was greater than 30 µM throughout. Besides, the AC50 (on Cannabinoid receptor 1; in [4]; in assay [5]; in assay [6]; on Histamine H3 receptor) was greater than 30 µM throughout.
Consider `CN1c2ccccc2C(NCCCCCCC(=O)O)c2ccc(Cl)cc2S1(=O)=O` (centres undefined) [TIANEPTINE], for which the AC50 (at Adenosine receptor A1; in assay [1]; on Vasopressin V1a receptor; at Vasopressin V2 receptor; in assay [2]; in assay [3]) was greater than 30 µM throughout. For the same compound, the AC50 (at Cannabinoid receptor 1; in assay [4]; in assay [5]; in [6]; on Histamine H3 receptor) was greater than 30 µM throughout.
For `COc1cc2c(Nc3ccc(Br)cc3F)ncnc2cc1OCC1CCN(C)CC1` [VANDETANIB], the AC50 on Adenosine receptor A1 was greater than 30 µM; in assay [1], greater than 30 µM; at Vasopressin V1a receptor, greater than 30 µM; on Vasopressin V2 receptor, greater than 30 µM; in [2], greater than 10 µM; in assay [3], 11 µM. The half-maximal activity concentration (AC50) at Cannabinoid receptor 1 is greater than 30 µM; in assay [4], 14 µM; in assay [5] it was greater than 30 µM; in assay [6] it was greater than 30 µM; on Histamine H3 receptor it was 2.1 µM.
